{"source": "patent US9359298B2", "about": "“Cajanine structure analogous compound, preparation method and use” (INSTITUTE OF MEDICINAL BIOTECHNOLOGY, CHINESE ACADEMY OF …, priority 2011, dated 2016)", "format_in_all_cases": "cell-based", "key": {"[1]": {"system": "PC12 cells", "assay": "Neuroprotective activity assay, rotenone injury to PC12 cells (MTT)", "settings": "for rotenone (surviving PC12 cells, MTT 570 nm) / viability at 10 µM: 10 μM test compound, 4 μM rotenone, 48 h, Control 100.0 ± 8.9, Model 73.2 ± 7.8; for viability at 10 µM: Rattus norvegicus, PC-12, 48 h, read-out: rotenone (surviving PC12 cells, MTT 570 nm); for protective effect on rotenone injury to PC12 cells: statement in words", "outline": "(§1)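 PC12 cells on poly-lysine plated 24 h, then injured 48 h by serum-free DMEM or 4 μM rotenone with 10 μM test compound present during injury. Viability read by MTT (4 h), absorbance 570 nm.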"}, "[2]": {"system": "HIV-1 III B virus", "assay": "Anti-HIV activity assay (P24 antigen in MT-4 cells)", "settings": "MT-4 cells, HIV-1 III B 100TCID50, 96 h, P24 antigen; for IC50: Human immunodeficiency virus 1, MT4, 96 h, read-out: HIV IC50"}, "[3]": {"system": "Influenza A virus (hanfang359/95)", "assay": "Determination of anti-influenza virus activity (CPE in MDCK cells)", "settings": "for IC50: Influenza A virus, MDCK, 36 h; for anti-influenza virus activities compared with the lead compound cajanine: statement in words"}, "[4]": {"system": "HCV", "assay": "Anti-hepatitis C virus (HCV) activity assay (HCV RNA in Huh7.5 cells)", "settings": "Huh7.5 cells, 72 h, HCV RNA by RT-PCR, Reed-Muench; for EC50: Hepatitis C virus, Huh7.5, 72 h, read-out: HCV EC50", "protocol": "Inoculate Huh7.5 cells into 96-well plates to a density of 3×10^4 cells/cm^2, culture for 24h, infect the cells with 45 IU/cell HCV supernatant, meanwhile, add drug solutions or solvent control for treatment."}, "[5]": {"system": "PC12 cells", "assay": "Neuroprotective activity assay, serum-deprived injury to PC12 cells (MTT)", "settings": "for serum-deprived (surviving PC12 cells, MTT 570 nm) / viability at 10 µM: 10 μM test compound, 48 h, Control 100.0 ± 9.2, Model 69.3 ± 4.1; for viability at 10 µM: Rattus norvegicus, PC-12, 48 h, read-out: serum-deprived (surviving PC12 cells, MTT 570 nm); for protective effect on serum-deprived injury to PC12 cells: statement in words", "outline": "as §1"}, "[6]": {"system": "Coxsackie virus B6", "assay": "Coxsackie virus activity assay (CPE in Vero cells)", "settings": "for IC50: Vero, read-out: COX-B6 IC50, Vero cells, about 100TCID50, CPE, Reed-Muench"}}, "note": "Like-named read-outs stand apart in the source and are kept apart here.", "data": [{"compound": "methyl 2-hydroxy-3-isopentenyl-4-methoxy-6-(4′-methyl-cyclohexylenemethyl)benzoate [Compound 8n]", "values": [{"measurement": "rotenone (surviving PC12 cells, MTT 570 nm)", "setting": "[1]", "value": "78.0 ± 9.2"}, {"measurement": "HIV IC50", "setting": "[2]", "value": 2.17, "unit": "mg/L"}, {"measurement": "Influenza A virus (hanfang359/95) IC50", "setting": "[3]", "value": ">2.06", "unit": "mg/L"}, {"measurement": "HCV EC50", "setting": "[4]", "value": 1.06, "unit": "mg/L"}, {"measurement": "serum-deprived (surviving PC12 cells, MTT 570 nm)", "setting": "[5]", "value": "53.7 ± 3.8"}, {"measurement": "COX-B6 IC50", "setting": "[6]", "value": ">6.17", "unit": "mg/L"}]}, {"compound": "COc1cc(/C=C/c2ccccc2)c(C(=O)O)c(OC(=O)c2cnc[nH]2)c1CC=C(C)C", "note": "[Compound 24q]", "values": [{"measurement": "viability at 10 µM", "setting": "[1]", "value": "90.5 ± 5.6", "unit": "%"}, {"measurement": "protective effect on rotenone injury to PC12 cells", "setting": "[1]", "value": "the strongest activities"}, {"measurement": "IC50", "setting": "[2]", "value": 2.85, "unit": "mg/L"}, {"measurement": "IC50", "setting": "[3]", "value": 1.98, "unit": "mg/L"}, {"measurement": "EC50", "setting": "[4]", "value": 1.54, "unit": "mg/L"}, {"measurement": "viability at 10 µM", "setting": "[5]", "value": "92.3 ± 1.2", "unit": "%"}, {"measurement": "protective effect on serum-deprived injury to PC12 cells", "setting": "[5]", "value": "the strongest activities"}, {"measurement": "IC50", "setting": "[6]", "value": 1.35, "unit": "mg/L"}]}, {"compound": "COC(=O)c1c(/C=C/CCc2ccccc2)cc(OC)c(CC=C(C)C)c1O", "note": "[Compound 8l, methyl 2-hydroxy-3-isopentenyl-4-methoxy-6-[(E)-4′-phenylbuten-1′-yl]benzoate]", "values": [{"measurement": "viability at 10 µM", "setting": "[1]", "value": "64.7 ± 1.8", "unit": "%"}, {"measurement": "IC50", "setting": "[2]", "value": 5.17, "unit": "mg/L"}, {"measurement": "IC50", "setting": "[3]", "value": 5.75, "unit": "mg/L"}, {"measurement": "EC50", "setting": "[4]", "value": 5.95, "unit": "mg/L"}, {"measurement": "viability at 10 µM", "setting": "[5]", "value": "51.1 ± 17", "unit": "%"}, {"measurement": "IC50", "setting": "[6]", "value": "> 6.17", "unit": "mg/L"}]}, {"compound": "CC(C)=CCc1c(O)cc(/C=C/c2ccccc2)c(C(=O)O)c1O", "note": "[Compound 33, 2,4-dihydroxy-3-isopentenyl-6-[(E)-styryl]benzoic acid]", "values": [{"measurement": "rotenone (surviving PC12 cells, MTT 570 nm)", "setting": "[1]", "value": "75.6 ± 2.1"}, {"measurement": "HIV IC50", "setting": "[2]", "value": 2.01, "unit": "mg/L"}, {"measurement": "Influenza A virus (hanfang359/95) IC50", "setting": "[3]", "value": 2.35, "unit": "mg/L"}, {"measurement": "HCV EC50", "setting": "[4]", "value": 1.55, "unit": "mg/L"}, {"measurement": "serum-deprived (surviving PC12 cells, MTT 570 nm)", "setting": "[5]", "value": "16.8 ± 0.4"}, {"measurement": "COX-B6 IC50", "setting": "[6]; Vero cells, about 100TCID50, CPE, Reed-Muench", "value": 2.31, "unit": "mg/L"}]}, {"compound": "COC(=O)c1c(/C=C/C2CCCCC2)cc(OC)c(CC=C(C)C)c1O", "note": "[Compound 8p, methyl 2-hydroxy-3-isopentenyl-4-methoxy-6-[(E)-2-cyclohexyl-vinyl]benzoate]", "values": [{"measurement": "viability at 10 µM", "setting": "[1]", "value": "84.6 ± 5.9", "unit": "%"}, {"measurement": "protective effect on rotenone injury to PC12 cells", "setting": "[1]", "value": "the strongest activities"}, {"measurement": "IC50", "setting": "[2]", "value": 21.1, "unit": "mg/L"}, {"measurement": "IC50", "setting": "[3]", "value": 10.3, "unit": "mg/L"}, {"measurement": "EC50", "setting": "[4]", "value": 11.4, "unit": "mg/L"}, {"measurement": "viability at 10 µM", "setting": "[5]", "value": "82.3 ± 5.6", "unit": "%"}, {"measurement": "protective effect on serum-deprived injury to PC12 cells", "setting": "[5]", "value": "the strongest activities"}, {"measurement": "IC50", "setting": "[6]", "value": "> 2.06", "unit": "mg/L"}]}, {"compound": "COc1cc(CCc2ccccc2)cc(O)c1CCC(C)C", "note": "[Compound 10u, 2-isopentyl-3-methoxy-5-phenethyl phenol]", "values": [{"measurement": "viability at 10 µM", "setting": "[1]", "value": "85.4 ± 2.3", "unit": "%"}, {"measurement": "protective effect on rotenone injury to PC12 cells", "setting": "[1]", "value": "the strongest activities"}, {"measurement": "IC50", "setting": "[2]", "value": 6.39, "unit": "mg/L"}, {"measurement": "IC50", "setting": "[3]", "value": "> 2.06", "unit": "mg/L"}, {"measurement": "EC50", "setting": "[4]", "value": 4.06, "unit": "mg/L"}, {"measurement": "viability at 10 µM", "setting": "[5]", "value": "87.6 ± 3.2", "unit": "%"}, {"measurement": "protective effect on serum-deprived injury to PC12 cells", "setting": "[5]", "value": "the strongest activities"}, {"measurement": "IC50", "setting": "[6]", "value": "> 6.19", "unit": "mg/L"}]}, {"compound": "COc1cc(/C=C/c2ccccc2C)cc(O)c1CC=C(C)C", "note": "[Compound 10e, 2-isopentenyl-3-methoxy-5-[(E)-2′-methylstyryl]phenol]", "values": [{"measurement": "viability at 10 µM", "setting": "[1]", "value": "70.2 ± 8.1", "unit": "%"}, {"measurement": "IC50", "setting": "[2]", "value": 1.33, "unit": "mg/L"}, {"measurement": "IC50", "setting": "[3]", "value": 1.92, "unit": "mg/L"}, {"measurement": "anti-influenza virus activities compared with the lead compound cajanine", "setting": "[3]", "value": "significantly stronger than the lead compound cajanine"}, {"measurement": "EC50", "setting": "[4]", "value": 1.9, "unit": "mg/L"}, {"measurement": "viability at 10 µM", "setting": "[5]", "value": "65.3 ± 2.3", "unit": "%"}, {"measurement": "IC50", "setting": "[6]", "value": 2.35, "unit": "mg/L"}]}, {"compound": "COC(=O)c1c(/C=C/c2cc(OC)cc(OC)n2)cc(OC)c(CC=C(C)C)c1O", "note": "[Compound 8x, methyl 2-hydroxy-3-isopentenyl-4-methoxy-6-[(E)-2-(4,6-dimethoxypyrid-2-yl)ethenyl]benzoate]", "values": [{"measurement": "viability at 10 µM", "setting": "[1]", "value": "76.5 ± 1.8", "unit": "%"}, {"measurement": "IC50", "setting": "[2]", "value": 0.79, "unit": "mg/L"}, {"measurement": "IC50", "setting": "[3]", "value": 0.65, "unit": "mg/L"}, {"measurement": "anti-influenza virus activities compared with the lead compound cajanine", "setting": "[3]", "value": "significantly stronger than the lead compound cajanine"}, {"measurement": "EC50", "setting": "[4]", "value": 1.87, "unit": "mg/L"}, {"measurement": "viability at 10 µM", "setting": "[5]", "value": "79.8 ± 2.6", "unit": "%"}, {"measurement": "IC50", "setting": "[6]", "value": 4.58, "unit": "mg/L"}]}, {"compound": "COc1c(Cl)c(/C=C/c2ccccc2)cc(O)c1CC=C(C)C", "note": "[Compound 10s, 2-isopentenyl-3-methoxy-4-chloro-5-[(E)-styryl]phenol]", "values": [{"measurement": "viability at 10 µM", "setting": "[1]", "value": "79.8 ± 3.5", "unit": "%"}, {"measurement": "IC50", "setting": "[2]", "value": 2.75, "unit": "mg/L"}, {"measurement": "IC50", "setting": "[3]", "value": "> 6.17", "unit": "mg/L"}, {"measurement": "EC50", "setting": "[4]", "value": 5.17, "unit": "mg/L"}, {"measurement": "viability at 10 µM", "setting": "[5]", "value": "78.5 ± 6.3", "unit": "%"}, {"measurement": "IC50", "setting": "[6]", "value": 4.35, "unit": "mg/L"}]}, {"compound": "COC(=O)c1c(O)c(CC=C(C)C)c(OC)c(Cl)c1/C=C/c1ccccc1", "note": "[Compound 12, methyl 2-hydroxy-3-isopentenyl-4-methoxy-5-chloro-6-[(E)-styryl]benzoate]", "values": [{"measurement": "viability at 10 µM", "setting": "[1]", "value": "74.5 ± 3.2", "unit": "%"}, {"measurement": "IC50", "setting": "[2]", "value": 8.17, "unit": "mg/L"}, {"measurement": "IC50", "setting": "[3]", "value": 6.17, "unit": "mg/L"}, {"measurement": "EC50", "setting": "[4]", "value": 6.87, "unit": "mg/L"}, {"measurement": "viability at 10 µM", "setting": "[5]", "value": "60.2 ± 5.1", "unit": "%"}, {"measurement": "IC50", "setting": "[6]", "value": "> 6.17", "unit": "mg/L"}]}]}
